Activity calls are given as the source filed them.
Columns and labels:
[1] = cAMP pathway inhibition in counterscreen cell line – TR-FRET cAMP detection, counter-screen for MC4R biased antagonist project, dose response (AID 602305); type: functional, cell-based;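 note: U2OS cells stimulated with forskolin near its EC80 as the cAMP inducer; potency is for inhibition of forskolin-stimulated cAMP signaling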
Coagulation factor XII = molecular target: T1, Coagulation factor XII (Homo sapiens, UniProt P00748); type: functional;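 note: activated factor XIIa alpha cleaving a fluorogenic AMC peptide substrate; inhibitor potency from loss of enzyme activity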
T1 sequence (P00748 whole entry): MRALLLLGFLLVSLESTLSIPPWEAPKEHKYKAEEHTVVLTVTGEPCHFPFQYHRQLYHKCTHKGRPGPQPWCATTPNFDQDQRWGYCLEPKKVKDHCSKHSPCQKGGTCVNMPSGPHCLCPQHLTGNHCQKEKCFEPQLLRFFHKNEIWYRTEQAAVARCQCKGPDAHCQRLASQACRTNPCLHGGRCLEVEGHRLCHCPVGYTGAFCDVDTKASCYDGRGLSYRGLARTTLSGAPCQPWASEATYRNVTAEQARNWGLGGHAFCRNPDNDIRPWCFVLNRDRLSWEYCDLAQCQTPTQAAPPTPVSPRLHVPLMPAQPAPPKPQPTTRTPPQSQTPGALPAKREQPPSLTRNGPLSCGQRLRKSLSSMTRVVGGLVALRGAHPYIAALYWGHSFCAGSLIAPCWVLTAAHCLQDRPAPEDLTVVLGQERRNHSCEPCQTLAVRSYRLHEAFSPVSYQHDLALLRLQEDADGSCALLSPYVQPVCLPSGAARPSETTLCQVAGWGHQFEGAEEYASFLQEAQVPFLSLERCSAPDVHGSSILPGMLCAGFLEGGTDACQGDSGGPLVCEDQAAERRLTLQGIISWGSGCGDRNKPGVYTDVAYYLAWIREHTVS

Melanocortin receptor 4 = Melanocortin receptor 4 (Homo sapiens, UniProt P32245); test: inhibitors of MC4R cAMP signaling – cell-based, TR-FRET, biased antagonists, dose response (AID 602298); type: functional;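 note: antagonist potency against agonist-stimulated cAMP production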
[2] = viability loss in HEK293T cells – cell-based, cherry-picks, cytotoxicity control for HIV Vif inhibitor project, dose response (AID 652208); type: functional
[3] = molecular target: T2, RNA-binding protein pos-1 (Caenorhabditis elegans, UniProt G5EF15); test: disruptors of C. elegans POS-1 RNA interaction – biochemical, fluorescence polarization, dose response (AID 1964);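 note: purified POS-1 fused to maltose binding protein made in E. coli; potency of compounds blocking POS-1 binding to fluorescent RNA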
T2 sequence (G5EF15 whole entry): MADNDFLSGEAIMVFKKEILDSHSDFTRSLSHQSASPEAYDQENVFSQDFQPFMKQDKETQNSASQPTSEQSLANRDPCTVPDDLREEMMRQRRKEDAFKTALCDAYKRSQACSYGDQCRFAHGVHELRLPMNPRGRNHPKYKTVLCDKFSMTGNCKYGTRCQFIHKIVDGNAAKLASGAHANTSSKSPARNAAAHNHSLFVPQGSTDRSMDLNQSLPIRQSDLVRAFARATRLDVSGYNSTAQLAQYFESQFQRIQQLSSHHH

Streptokinase A = molecular target: T3, Streptokinase A (Streptococcus pyogenes serotype M1, UniProt P10520); test: viability-normalized secreted streptokinase activity reduction – plasminogen activation absorbance, OD405, dose response (AID 1914); type: functional, Streptococcus pyogenes M1 GAS;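 note: secreted streptokinase activity via plasminogen activation per viability signal from cell pellet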
T3 sequence (P10520 whole entry): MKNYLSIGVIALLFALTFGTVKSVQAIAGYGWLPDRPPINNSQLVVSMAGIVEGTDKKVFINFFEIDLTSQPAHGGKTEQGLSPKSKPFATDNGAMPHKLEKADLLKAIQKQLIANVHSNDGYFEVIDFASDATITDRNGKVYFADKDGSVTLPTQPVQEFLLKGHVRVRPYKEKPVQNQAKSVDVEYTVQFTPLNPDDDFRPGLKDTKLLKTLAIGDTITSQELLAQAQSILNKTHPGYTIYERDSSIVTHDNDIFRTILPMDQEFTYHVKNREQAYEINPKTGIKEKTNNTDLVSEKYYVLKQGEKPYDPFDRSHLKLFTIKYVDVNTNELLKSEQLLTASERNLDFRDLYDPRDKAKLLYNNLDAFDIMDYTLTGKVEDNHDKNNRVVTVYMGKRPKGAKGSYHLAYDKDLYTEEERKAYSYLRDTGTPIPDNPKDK

Streptococcus = test: GAS UMAA2166 growth inhibition – luminescence, BacTiterGlo, counter-screen for streptokinase expression inhibitor project, dose response (AID 1915); type: functional, organism-based;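 note: potency for reduction of bacterial viability or growth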
CHO = CHO cell viability loss, potency – luminescence, cytotoxicity control for TLR9-MyD88 binding inhibitor project, dose response (AID 588339); type: functional, cell-based, hamster; conditions: Cricetulus griseus;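 note: CHO cells stably coexpressing TLR9 and MyD88 fusions from primary screen; compound exposure lasted 48 hours before viability readout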
Beta Lactamase = Beta Lactamase (Pseudomonas aeruginosa, UniProt Q932Y6); test: BLA reporter interference, concentration series – BLA reporter cells, FRET fluorescence, artefact control for TLR9-MyD88 binding inhibitor project, dose response (AID 588341); type: cell-based;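 note: cell based assay in CHO-K1 cells stably expressing beta-lactamase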
[4] = molecular target: T4, Zinc finger protein mex-5 (Caenorhabditis elegans, UniProt Q9XUB2); test: potency of MEX-5 RNA-binding blockers – biochemical, C. elegans, fluorescence polarization, dose response (AID 1960)
T4 sequence (Q9XUB2 whole entry): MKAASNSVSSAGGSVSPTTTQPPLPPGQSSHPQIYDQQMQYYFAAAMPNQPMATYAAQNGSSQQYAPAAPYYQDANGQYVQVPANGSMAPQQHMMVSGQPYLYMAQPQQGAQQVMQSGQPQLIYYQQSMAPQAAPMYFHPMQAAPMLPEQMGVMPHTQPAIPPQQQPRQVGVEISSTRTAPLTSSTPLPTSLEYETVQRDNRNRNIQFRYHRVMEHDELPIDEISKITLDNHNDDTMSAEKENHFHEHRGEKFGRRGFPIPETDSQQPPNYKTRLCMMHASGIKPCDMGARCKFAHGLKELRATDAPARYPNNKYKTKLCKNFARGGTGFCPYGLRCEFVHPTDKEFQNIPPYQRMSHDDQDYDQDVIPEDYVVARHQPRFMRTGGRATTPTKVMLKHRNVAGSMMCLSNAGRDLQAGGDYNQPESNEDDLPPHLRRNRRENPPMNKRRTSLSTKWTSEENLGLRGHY

[5] = molecular target: FAD-linked sulfhydryl oxidase ALR (Homo sapiens, UniProt P55789); test: ALR-catalysed DTT oxidation blockers – biochemical, H2O2 detection, luminescence, cherry-pick, dose response (AID 493248)
[6] = molecular target: T5, Carboxy-terminal domain RNA polymerase II polypeptide A small phosphatase 1 (Homo sapiens, UniProt Q9GZU7); test: CTDSP1 inhibitors, concentration-response, biochemical, absorbance readout, ultra-high-throughput screen actives (AID 540297); type: functional
T5 sequence (Q9GZU7 whole entry): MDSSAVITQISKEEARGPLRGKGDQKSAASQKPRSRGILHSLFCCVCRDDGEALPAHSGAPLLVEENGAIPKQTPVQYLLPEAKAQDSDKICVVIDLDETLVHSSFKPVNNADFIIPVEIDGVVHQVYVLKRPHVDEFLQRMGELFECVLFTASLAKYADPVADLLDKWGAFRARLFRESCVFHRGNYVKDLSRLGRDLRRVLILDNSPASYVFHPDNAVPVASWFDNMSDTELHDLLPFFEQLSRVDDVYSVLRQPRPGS

Large T antigen = Large T antigen (Simian virus 40, UniProt P03070); type: functional, Betapolyomavirus macacae;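 note: Confirmatory-stage PubChem screen for compounds that inhibit SV40 T antigen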
Genome polyprotein = Genome polyprotein (dengue virus type 2, UniProt P29990); test: flavivirus cap methylation enzyme inhibition – biochemical, confirmation dose response, primary screen (AID 588689); type: functional
[7] = molecular target: DNA (cytosine-5)-methyltransferase 1 (Homo sapiens, UniProt P26358); test: inhibition of DNA methylation by DNMT1 – biochemical, fluorescent molecular beacon, confirmation (AID 602386); type: functional
Chain of DNA (cytosine-5)-methyltransferase 1 (P26358 whole entry): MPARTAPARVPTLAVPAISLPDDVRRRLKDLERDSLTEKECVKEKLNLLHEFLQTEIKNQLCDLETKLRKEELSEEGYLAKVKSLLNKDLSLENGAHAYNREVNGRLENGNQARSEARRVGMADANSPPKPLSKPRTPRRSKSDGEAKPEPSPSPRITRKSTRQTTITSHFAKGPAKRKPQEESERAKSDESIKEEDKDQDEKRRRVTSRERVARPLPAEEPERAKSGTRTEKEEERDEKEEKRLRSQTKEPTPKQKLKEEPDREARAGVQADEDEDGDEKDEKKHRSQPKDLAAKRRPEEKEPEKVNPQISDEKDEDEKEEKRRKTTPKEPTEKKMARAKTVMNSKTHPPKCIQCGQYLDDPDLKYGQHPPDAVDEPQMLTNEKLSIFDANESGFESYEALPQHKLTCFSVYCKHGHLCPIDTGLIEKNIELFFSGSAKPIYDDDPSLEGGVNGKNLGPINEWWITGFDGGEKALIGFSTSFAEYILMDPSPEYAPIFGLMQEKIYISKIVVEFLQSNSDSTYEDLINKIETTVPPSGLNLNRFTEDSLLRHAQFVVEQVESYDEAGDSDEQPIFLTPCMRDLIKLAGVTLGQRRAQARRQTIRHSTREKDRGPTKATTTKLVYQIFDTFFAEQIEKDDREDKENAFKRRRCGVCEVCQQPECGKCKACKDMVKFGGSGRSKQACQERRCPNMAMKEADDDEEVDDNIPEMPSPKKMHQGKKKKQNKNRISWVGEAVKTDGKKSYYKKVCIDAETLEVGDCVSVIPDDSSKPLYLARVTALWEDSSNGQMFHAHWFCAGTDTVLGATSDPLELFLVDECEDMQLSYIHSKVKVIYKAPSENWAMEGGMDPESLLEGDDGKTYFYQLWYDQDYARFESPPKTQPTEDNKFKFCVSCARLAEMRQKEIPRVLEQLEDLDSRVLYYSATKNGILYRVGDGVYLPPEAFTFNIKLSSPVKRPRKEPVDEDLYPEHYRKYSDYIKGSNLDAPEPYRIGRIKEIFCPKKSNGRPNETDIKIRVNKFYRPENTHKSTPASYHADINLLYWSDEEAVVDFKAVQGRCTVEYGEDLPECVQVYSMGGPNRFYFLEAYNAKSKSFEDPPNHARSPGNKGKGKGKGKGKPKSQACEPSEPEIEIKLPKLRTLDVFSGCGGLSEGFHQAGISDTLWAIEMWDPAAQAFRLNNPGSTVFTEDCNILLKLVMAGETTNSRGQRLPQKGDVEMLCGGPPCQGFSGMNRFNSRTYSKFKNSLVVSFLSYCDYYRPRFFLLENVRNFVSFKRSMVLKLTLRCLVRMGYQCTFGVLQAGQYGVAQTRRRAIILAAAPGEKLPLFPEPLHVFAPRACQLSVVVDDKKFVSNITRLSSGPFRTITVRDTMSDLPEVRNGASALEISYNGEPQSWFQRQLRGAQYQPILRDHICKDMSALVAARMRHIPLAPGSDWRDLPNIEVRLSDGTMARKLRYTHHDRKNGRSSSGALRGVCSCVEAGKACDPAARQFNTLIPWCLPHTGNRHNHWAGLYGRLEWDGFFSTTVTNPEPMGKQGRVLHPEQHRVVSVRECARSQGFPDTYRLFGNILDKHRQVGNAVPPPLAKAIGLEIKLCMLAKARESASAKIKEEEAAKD

Chain of Melanocortin receptor 4 (P32245 whole entry): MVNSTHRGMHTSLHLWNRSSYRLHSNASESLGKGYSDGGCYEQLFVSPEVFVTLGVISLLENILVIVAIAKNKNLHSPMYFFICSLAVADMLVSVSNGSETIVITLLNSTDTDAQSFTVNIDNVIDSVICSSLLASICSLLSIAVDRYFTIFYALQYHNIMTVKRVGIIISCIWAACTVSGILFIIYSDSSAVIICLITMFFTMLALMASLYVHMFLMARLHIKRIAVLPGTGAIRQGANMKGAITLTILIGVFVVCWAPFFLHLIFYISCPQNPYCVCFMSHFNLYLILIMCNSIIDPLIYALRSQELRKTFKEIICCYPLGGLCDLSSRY
Chain of FAD-linked sulfhydryl oxidase ALR (P55789 whole entry, the tested form may be a part): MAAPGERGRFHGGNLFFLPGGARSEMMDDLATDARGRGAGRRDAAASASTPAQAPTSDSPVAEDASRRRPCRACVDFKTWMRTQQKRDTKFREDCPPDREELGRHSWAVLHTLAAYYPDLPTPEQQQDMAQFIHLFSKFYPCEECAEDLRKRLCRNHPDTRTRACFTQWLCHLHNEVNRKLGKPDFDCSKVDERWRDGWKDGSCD
Chain of Genome polyprotein (P29990 2492-3391 limits assumed): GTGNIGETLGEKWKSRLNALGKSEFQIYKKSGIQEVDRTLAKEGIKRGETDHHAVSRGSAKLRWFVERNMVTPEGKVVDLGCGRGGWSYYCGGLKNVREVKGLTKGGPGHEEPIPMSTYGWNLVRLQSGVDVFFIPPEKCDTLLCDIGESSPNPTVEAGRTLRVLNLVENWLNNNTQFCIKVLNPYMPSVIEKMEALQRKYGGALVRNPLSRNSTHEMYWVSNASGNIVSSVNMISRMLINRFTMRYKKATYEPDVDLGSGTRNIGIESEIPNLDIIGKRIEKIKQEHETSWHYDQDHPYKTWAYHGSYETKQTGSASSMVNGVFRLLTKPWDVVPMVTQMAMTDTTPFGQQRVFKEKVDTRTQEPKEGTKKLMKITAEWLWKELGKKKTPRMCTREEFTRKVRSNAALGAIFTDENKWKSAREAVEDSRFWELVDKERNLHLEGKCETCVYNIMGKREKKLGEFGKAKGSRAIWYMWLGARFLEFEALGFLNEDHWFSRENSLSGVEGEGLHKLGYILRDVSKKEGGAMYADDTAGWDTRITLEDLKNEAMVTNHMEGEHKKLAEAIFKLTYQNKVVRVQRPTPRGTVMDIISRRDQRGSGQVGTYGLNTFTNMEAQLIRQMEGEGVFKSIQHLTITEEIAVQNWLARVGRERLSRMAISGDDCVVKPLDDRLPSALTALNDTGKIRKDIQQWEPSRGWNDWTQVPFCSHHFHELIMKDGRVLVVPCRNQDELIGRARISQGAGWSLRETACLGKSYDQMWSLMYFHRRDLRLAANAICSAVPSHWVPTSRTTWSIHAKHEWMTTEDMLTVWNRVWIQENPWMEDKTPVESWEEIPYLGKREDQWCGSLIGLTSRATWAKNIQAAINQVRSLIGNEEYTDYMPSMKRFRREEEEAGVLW
Chain of Large T antigen (P03070 whole entry): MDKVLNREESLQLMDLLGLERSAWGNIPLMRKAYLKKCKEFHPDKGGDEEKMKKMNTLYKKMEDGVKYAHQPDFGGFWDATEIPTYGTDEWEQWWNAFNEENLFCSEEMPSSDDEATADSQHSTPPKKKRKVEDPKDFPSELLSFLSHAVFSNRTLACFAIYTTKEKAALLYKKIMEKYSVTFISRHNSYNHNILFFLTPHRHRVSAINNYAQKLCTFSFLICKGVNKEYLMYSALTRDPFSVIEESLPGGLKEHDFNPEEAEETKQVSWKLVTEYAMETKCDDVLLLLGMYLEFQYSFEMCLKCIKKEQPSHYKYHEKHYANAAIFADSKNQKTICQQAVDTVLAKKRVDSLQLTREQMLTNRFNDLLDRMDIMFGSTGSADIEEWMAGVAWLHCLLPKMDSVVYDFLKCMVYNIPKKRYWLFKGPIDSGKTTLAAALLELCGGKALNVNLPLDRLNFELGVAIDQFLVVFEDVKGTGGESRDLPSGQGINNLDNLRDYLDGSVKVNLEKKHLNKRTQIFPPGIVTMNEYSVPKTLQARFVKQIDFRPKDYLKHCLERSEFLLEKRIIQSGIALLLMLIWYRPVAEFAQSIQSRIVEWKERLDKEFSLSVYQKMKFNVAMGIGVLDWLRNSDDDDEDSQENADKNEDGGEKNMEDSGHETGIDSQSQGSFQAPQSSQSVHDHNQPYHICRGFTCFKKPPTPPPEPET
Chain of Beta Lactamase (Q932Y6 whole entry): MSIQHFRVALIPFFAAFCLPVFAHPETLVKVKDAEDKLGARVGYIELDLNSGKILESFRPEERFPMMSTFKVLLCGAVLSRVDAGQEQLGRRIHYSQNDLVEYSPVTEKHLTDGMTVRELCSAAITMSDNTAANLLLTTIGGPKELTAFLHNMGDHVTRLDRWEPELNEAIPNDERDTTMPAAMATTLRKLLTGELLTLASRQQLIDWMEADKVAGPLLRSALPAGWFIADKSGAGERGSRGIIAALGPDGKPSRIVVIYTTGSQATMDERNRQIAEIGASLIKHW

## COc1ccc(CCn2c(C)cc(C(=O)CCl)c2C)cc1OC
[1]
  IC50: > 64.6 µM (inactive)
Coagulation factor XII
  IC50: > 50 µM (inactive)
Melanocortin receptor 4
  IC50: > 64.6 µM (inactive)

## Nc1c(C(=O)Nc2nc3ccccc3s2)sc2nc(-c3cccs3)ccc12
[2]
  AC50: 7.27 µM (active)
[3]
  EC50: 19.2 µM (inconclusive)
Streptokinase A
  EC50: > 150 µM (not active)
Streptococcus
  EC50: 109 µM (active)
CHO
  IC50: 5.51 µM (active)
Beta Lactamase
  IC50: 3.93 µM (active)
[4]
  EC50: > 150 µM (inconclusive)

## CC1(C(=O)N/N=C/c2c(F)c(F)c(F)c(F)c2F)CC1(Cl)Cl (configuration not stated)
[1]
  IC50: > 64.6 µM (inactive)
Melanocortin receptor 4
  IC50: > 7.17 µM (active)

## O=C1NN(c2ccccc2)C(=O)/C1=C/c1ccc(-c2ccc(C(=O)O)cc2)o1
[5]
  AC50: 0.11 µM (active)
[6]
  IC50: 4.57 µM (active)
Large T antigen
  IC50: 20.6 µM (active)
Genome polyprotein
  IC50: > 100 µM (active)
[7]
  IC50: 10.2 µM (active)
